# Test results reported in patent US5756301A, “Endogenous taxol-like substance in human serum, monoclonal antibodies directed thereto and methods of assaying therefor” (The Trustees of Columbia University in the City of New York, priority 1993, dated 1998).
# “Also recorded” adds a separate entry of the source. Like-named read-outs stand apart in the source and are kept apart here.
# Assays:
# [1] = tested on: rabbit anti-taxol antiserum; experiment: RIA: inhibition of binding of rabbit anti-taxol antiserum to [3H]taxol; conditions: for Affinity of rabbit antibodies (in words): [3H]taxol
# Protocol: (§1) Bound ligand was separated from free by the addition of 100 ul of a 2.5% dextran-coated charcoal solution in RIA buffer, incubation for 3 min at 4° C. and centrifugation in an Eppendorf centrifuge for 2 min.
# [2] = tested on: 29B7B3C; experiment: Competitive ELISA, inhibition of binding of 29B7B3C to taxol-RSA; set-up: species or system mouse
# Protocol: (§2) Spleen cells were fused with nonsecreting myeloma cells P3 ×63-Ag8.653 (13), according to the method of Sharon et al. (14). […] Clones positive by competitive ELISA were subcloned twice by limiting dilution. Ascites were obtained by injecting 10^6 to 10^7 cells i.p. into BALB/c mice that had been primed with IFA i.p. 5 days before.
# (§3) The wells were washed with PBS-T-20 three times and blocked with 200 ul of PBS, containing 1% fetal calf serum, for 1 hour at 37° C. […] After washing four times with PBS-T-20, bound antibodies were detected with 100 ul of 1/3000 dilution of peroxidase-labeled goat anti-mouse IgG+IgM in PBS-T-20 for 1 hour at 37° C. Color was developed and absorbance was measured as described above.
# [3] = tested on: KB cells; conditions: cited from earlier work
# [4] = tested on: microtubules / tubulin; conditions: cited from earlier work
# [5] = tested on: 69E4A8E; experiment: Competitive ELISA, inhibition of binding of 69E4A8E to taxol-RSA; set-up: species or system mouse
# Protocol: as §2, §3
# [6] = tested on: antibodies specific for taxol (one rabbit antiserum and two monoclonal antibodies); experiment: Binding to all of the antibodies (rabbit antiserum, 69E4A8E, 29B7B3C); set-up: species or system rabbit; mouse; conditions: 69E4A8E and 29B7B3C
# Protocol: as §3, with “Polystyrene microplates were coated with 100 ul of taxol-RSA (250ng/ml) in 0.1 M sodium bicarbonate, pH=9.3, overnight at 4° C. The” for “The”
# as §1
# [7] = read-out: Peak taxol level in plasma; 200 to 250 mg/m^2 infusion over 24 hours; cited from earlier work
# [8] = tested on: ovarian and breast cancer and melanoma; conditions: clinical trials; cited from earlier work
# [9] = clinical trials; cited from earlier work
# [10] = tested on: tumor; conditions: cited from earlier work
# [11] = relative to taxol = 1, data from reference 10
smiles,measurement,setting,value
"C/C=C(\C)C(=O)N[C@@H](c1ccccc1)[C@@H](O)C(=O)O[C@H]1C[C@@]2(O)[C@@H](OC(=O)c3ccccc3)[C@@H]3[C@]4(OC(C)=O)CO[C@@H]4C[C@H](O)[C@@]3(C)C(=O)[C@H](OC(C)=O)C(=C1C)C2(C)C [Cephalomannine, cephalomannine]",Affinity of rabbit antibodies (in words),[1]; RIA,almost equal affinity
same,Binding affinity of 29B7B3C (in words),[2]; competitive ELISA,higher binding affinities
same,"Relative IC50, cytotoxicity (KB cells)",[3]; [11],3.2
"CC(=O)O[C@H]1C(=O)[C@@]2(C)[C@H]([C@H](OC(=O)c3ccccc3)[C@]3(O)C[C@H](O)C(C)=C1C3(C)C)[C@]1(OC(C)=O)CO[C@@H]1C[C@@H]2O [Baccatin III, baccatin III]",Affinity lower than taxol (orders of magnitude),[1],about 3 orders of magnitude
same,"Relative IC50, cytotoxicity (KB cells)",[3]; human,"1,700"
COc1cc([C@@H]2c3cc4c(cc3[C@H](O)[C@H]3COC(=O)[C@H]23)OCO4)cc(OC)c1OC [podophyllotoxin],Effect on microtubule assembly / tubulin polymerization,[4],inhibit tubulin polymerization
CC[C@]1(O)C[C@@H]2CN(CCc3c([nH]c4ccccc34)[C@@](C(=O)OC)(c3cc4c(cc3OC)N(C)[C@H]3[C@@](O)(C(=O)OC)[C@H](OC(C)=O)[C@]5(CC)C=CCN6CC[C@]43[C@@H]65)C2)C1 [vinblastine],Effect on microtubule assembly / tubulin polymerization,[4],inhibit tubulin polymerization
"CC[Si](CC)(CC)O[C@@H](C(=O)O[C@H]1C[C@@]2(O)[C@@H](OC(=O)c3ccccc3)[C@@H]3[C@]4(OC(C)=O)CO[C@@H]4C[C@H](O)[C@@]3(C)C(=O)[C@H](OC(C)=O)C(=C1C)C2(C)C)[C@@H](NC(=O)c1ccccc1)c1ccccc1 [2'-(Triethylsiyl) taxol, 2'-(triethylsilyl)taxol]","Relative IC50, cytotoxicity (KB cells)",[3]; human,"30,000"
"CC(=O)OC[C@@]1(O)[C@H]2[C@H](OC(=O)c3ccccc3)[C@]3(O)C[C@H](OC(=O)[C@H](O)[C@@H](NC(=O)c4ccccc4)c4ccccc4)C(C)=C([C@@H](OC(C)=O)C(=O)[C@]2(C)[C@@H](O)C[C@@H]1O)C3(C)C [20-acetoxy-4-deacetyl-5-epi-20,0-secotaxol]",Affinity lower than taxol (orders of magnitude),"[1]; RIA, lower than taxol",about 3 orders of magnitude
same,"Relative IC50, cytotoxicity (KB cells)",[3]; [11],"> 100,000"
CC(=O)O[C@H]1C(=O)[C@@]2(C)[C@H]([C@H](OC(=O)c3ccccc3)[C@]3(O)C[C@H](OC(=O)[C@H](O)[C@@H](NC(=O)c4ccccc4)c4ccccc4)C(C)=C1C3(C)C)[C@]1(OC(C)=O)CO[C@@H]1C[C@@H]2O [Taxol],Affinity of rabbit antibodies (in words),[1]; RIA,almost equal affinity
same,Binding affinity of 29B7B3C (in words),[2],higher binding affinities
same,IC50,"[2]; ELISA, 29B7B3C",~100 nM
same,Binding affinity / recognition by 69E4A8E (in words),[5],higher binding affinities
same,IC50,"[5]; ELISA, 69E4A8E",~100 nM
same,Binding by all antibodies (in words),[6],bind taxol and active derivatives well
same,Cmax,[7],> 600 nM
same,Clinical efficacy,[8],"affective in the treatment of ovarian (5, 6) and breast cancer (7) and melanoma (8)"
same,Side effects,[9],"neutropenia, hypersensitivity reactions mucositis, neurological and possible cardiac toxicity"
same,Effect on microtubule assembly / tubulin polymerization,[4],promote and stabilize microtubule assembly and inhibit disassembly to tubulin
same,Antitumor activity,[10],shown to have antitumor activity
CC(=O)O[C@@]12CO[C@@H]1C[C@H](O)[C@@]1(C)C(=O)[C@H](O)C3=C(C)[C@@H](OC(=O)[C@H](O)[C@@H](NC(=O)OC(C)(C)C)c4ccccc4)C[C@@](O)([C@@H](OC(=O)c4ccccc4)[C@H]21)C3(C)C [Taxotere],Affinity of rabbit antibodies (in words),[1]; RIA,inability of the rabbit serum and 69E4A8E to recognize taxotere
same,Affinity lower than taxol (fold),"[1]; RIA, lower affinity than taxol",100 fold
same,Binding affinity of 29B7B3C (in words),[2]; competitive ELISA,binds taxotere as well as it does taxol
same,Binding affinity / recognition by 69E4A8E (in words),[5]; competitive ELISA,recognized poorly; also recorded: inability of the rabbit serum and 69E4A8E to recognize taxotere
CC(=O)O[C@@]12CO[C@@H]1C[C@H](O)[C@@]1(C)C(=O)[C@H](O)C3=C(C)[C@@H](O)C[C@@](O)([C@@H](OC(=O)c4ccccc4)[C@H]21)C3(C)C [10-deacetylbaccatin III],"Relative IC50, cytotoxicity (KB cells)",[3]; human,400
"CC(=O)O[C@H]1C(=O)[C@]2(C)[C@H](O)C[C@H]3OC[C@@]3(OC(C)=O)[C@H]2[C@H](OC(=O)c2ccccc2)[C@]2(O)C[C@H](OC(=O)[C@H](O)[C@@H](NC(=O)c3ccccc3)c3ccccc3)C(C)=C1C2(C)C [7-Epitaxol, 7-epitaxol]",Binding affinity of 29B7B3C (in words),[2]; competitive ELISA,higher binding affinities
same,Binding affinity / recognition by 69E4A8E (in words),[5]; competitive ELISA,higher binding affinities
